Drawing on article PMC2765639 (PLoS Neglected Tropical Diseases, 2009), this text covers EC50 for 24 compounds.

For one experiment, the system named is L. major promastigotes. Kind of experiment: L. major promastigote drug susceptibility assay (alamar blue, 384-well). To be noted: Table S1; PMLSC library samples, 10-point 0.01–5.00 µM; read-out: EC50 Ave ± SD, Lm. Type of experiment: cell-based, Leishmania major. The procedure: Promastigotes were grown in vented T75 tissue culture flasks and maintained at 28°C. Promastigote cultures were initiated at 10^5 parasites per mL and subcultured every 3–4 days. L. major promastigote counts were performed in duplicate using a hemocytometer and particle counter (Beckman Coulter, Fullerton, CA). For HTS assays, L. major promastigote cultures were harvested during exponential growth phase (∼2.0–3.0×10^7 parasites/mL) and were not maintained past passage 20.
The final test compound concentration was 10 µM with a constant DMSO concentration of 1% in each assay well.
The L. major promastigote drug susceptibility assay was performed in a final volume of 25 µL using our previously described 384-well microtiter plate format,[39]. For automated HTS procedures, L. major promastigotes (5,000 parasites/22 µL) in complete growth medium were seeded into each well of the microtiter plates using a MAPC2 bulk dispenser (Titertek, Huntsville, AL). Test and control compounds (3 µL) were added to individual wells using a Velocity 11 V-prep (Menlo Park, CA) liquid handling system, equipped with a 384-well dispensing head, followed by centrifugation at 50 g for 1 min. […] Assay plates were allowed to incubate for 44 h at 28°C in the presence of 5% CO2. Five µL of alamar blue reagent were added to each assay plate well and incubated for 4 h at 28°C with 5% CO2. Data were captured on a Molecular Devices SpectraMax M5 (excitation560; emission590). Individual assay plate Z-factors were derived from the vehicle and positive controls, and data from plates were used only if Z-factors were >0.5 [50].
The assays were performed in duplicate with a final 10-point concentration range spanning 0.01–5.00 µM.
In general terms: Resazurin is reduced to fluorescent resorufin, in cell work by metabolically active cells.

In a further experiment the test system is A549. The experiment can be described thus: Mammalian cell line specificity assay (alamar blue). Type of experiment: cell-based, human. As to conditions: Table S1; PMLSC library samples; read-out: EC50 Ave ± SD, A549. The procedure:
Mammalian cells were cultured and maintained according to ATCC specifications (ATCC, Manassas, VA). Cell line drug susceptibility assays were performed in final volumes of 25 µL using our previously described 384-well microtiter plate format,[39]. […] Test and control compounds were added to individual wells as described above. Vehicle and positive controls were 1% DMSO and 10% DMSO, respectively (final well concentrations). Assay plates were incubated for 44–46 h at 37°C in the presence of 5% CO2 and growth inhibitory effects were determined as described above. Five µL of alamar blue reagent was added to each well and incubated for 2–4 h. Data were captured as described above.

Structures are written as SMILES.

As for `Cc1ccc2nc(Cl)c3nnnn3c2c1` [CID 4202676], the EC50 (usually the midpoint of the concentration-response curve) with L. major promastigotes was 767 ± 76 nM; with A549 it was more than 5000 nM.
Regarding `COC(=O)c1cccc(Cn2c(Cl)c(C=NNc3ccccc3C)sc2=O)c1` [CID 4271960], the values for the EC50 with L. major promastigotes and in the experiment with A549 were 545 ± 193 nM and more than 5000 nM, respectively.
On the same counts, the results for `Cc1nc([N+](=O)[O-])nn1C12CC3CC(CC(Cl)(C3)C1)C2` [CID 5032706] are 856 ± 33 nM and more than 5000 nM.
Consider `CC1=C(C(=O)Nc2cc(-c3cccc(F)c3)[nH]n2)C2(CCCCC2)OC1=O` [CID 5309827], for which the 50% effective concentration (EC50) was 382 ± 56 nM in the experiment on L. major promastigotes and more than 5000 nM in the experiment on A549.
On the same counts, the results for `CCOC(=O)N=Nc1c2ccccc2c2nc3no[nH]c3nc12` [CID 5833488] are 788 ± 114 nM and 151 ± 10 nM.
For `COC(=O)c1ccc(-c2ccc(CNCC(O)c3ccccc3)o2)cc1` (stereo not drawn) [CID 6602747], the EC50 in the experiment with L. major promastigotes is 104 ± 27 nM; with A549, more than 5000 nM.
On the same counts, the results for `CC(C)CCN(C)C1CCN(S(=O)(=O)c2cccc(C(F)(F)F)c2)CC1` [CID 6602880] are 10 ± 3 nM and more than 5000 nM.
On the same counts, the results for `N=c1c2c(n(Cc3ccccc3)c3c1CCC3)CCC2` [CID 6603247] are 83 ± 5 nM and more than 5000 nM.
Consider `O=C1C2CCN(CC2)C1Cc1ccc(OCCOc2ccccc2)cc1` (stereo not drawn) [CID 6603672], for which the concentration for a half-maximal effect (EC50) with L. major promastigotes is 274 ± 51 nM; in the experiment with A549, more than 5000 nM.
On the same counts, the results for `C[C@H]1C[C@@H](C)C(=O)[C@@H]([C@H](O)CC2CC(=O)NC(=O)C2)C1` [CID 6604199] are 5 ± 0.1 nM and 1900 ± 1400 nM.
For `c1ccc2c(c1)OC(CCCN1CCCCC1)c1ccccc1S2` (stereo not drawn) [CID 9549148], the EC50 is 137 ± 40 nM with L. major promastigotes and more than 5000 nM in the experiment with A549.
For the compound `COC(=O)c1ccc2c(c1)C(C)(C)C(/C=C/c1ccc(OC)c(OC)c1OC)=[N+]2C` [CID 9550329], the figures for the concentration for a half-maximal effect (EC50) in the experiment on L. major promastigotes and with A549 were 50 ± 0.1 nM and more than 5000 nM, respectively.
Take `CCCCCCCCCCCCCCCC[n+]1ccc(/C=N/O)cc1` [CID 11293258]: the results for the EC50 with L. major promastigotes and in the experiment on A549 were 10 ± 2 nM and 1300 ± 76 nM, respectively.
As to `O=C(COc1ccccc1F)NC1CCN(Cc2ccccc2)CC1` [CID 11834429], the EC50 was 142 ± 32 nM in the experiment on L. major promastigotes and more than 5000 nM with A549.
With `Cc1ccccc1NC1=C/C(=N\S(=O)(=O)c2cccs2)c2ccccc2C1=O` [CID 11834470], the concentration for a half-maximal effect (EC50) is 211 ± 47 nM in the experiment on L. major promastigotes and more than 5000 nM in the experiment on A549.
As to `COCCCN1CCN(c2nnc3n2-c2sc(Br)cc2C(c2ccccc2Cl)=NC3)CC1` [CID 11948854], the EC50 in the experiment on L. major promastigotes is 607 ± 166 nM; with A549, more than 5000 nM.
On the same counts, the results for `CCCCCCCCC[n+]1cccc2c3ccccc3ccc21` [CID 11957314] are 205 ± 21 nM and 1140 ± 53 nM.
For the compound `CC[n+]1c(/C=C/N(C)c2ccccc2)sc2ccc(Cl)cc21.[O-][Cl+3]([O-])([O-])[O-]` [CID 11958710], the results for the concentration for a half-maximal effect (EC50) in the experiment with L. major promastigotes and in the experiment with A549 were 174 ± 32 nM and more than 5000 nM, respectively.
`CC(=O)O[C@@H]1C[C@H]2C(C)(C)C(=O)C=C[C@]2(C)[C@H]2CC[C@@]3(C)[C@H](c4ccoc4)OC(=O)[C@H]4O[C@]43[C@@]21C` [CID 12004512]: the concentration giving a half-maximal response (EC50) is 746 ± 211 nM with L. major promastigotes and more than 5000 nM in the experiment with A549.
`CCC(/C=C1\Sc2ccc(OC)cc2N1CCO)=C\c1sc2ccc(OC)cc2[n+]1CCO` [CID 12004742]: the half-maximal effective concentration (EC50) in the experiment on L. major promastigotes was 491 ± 92 nM; in the experiment with A549, more than 5000 nM.
Take `CCCCCCCCCCCCCCCC[n+]1cccc(C(=O)N(CC)CC)c1` [CID 12005597]: the concentration giving a half-maximal response (EC50) in the experiment on L. major promastigotes came to 629 ± 107 nM; with A549, 4070 ± 721 nM.
On the same counts, the results for `Cc1ccc(-c2cc3cccc[n+]3cc2-c2ccc(C)cc2)cc1` [CID 13481921] are 229 ± 34 nM and more than 5000 nM.
In the case of `Nc1nn(-c2ccccc2)c(N)c1N=Nc1ccc2c(c1)OCO2` [CID 15944965], the values for the EC50 in the experiment on L. major promastigotes and in the experiment on A549 were 849 ± 99 nM and more than 5000 nM, respectively.
In the case of `O=C(c1ccccc1)c1c2c(cc3sc4ccccc4[n+]13)-c1cccc3cccc-2c13` [CID 15944971], the values for the concentration giving a half-maximal response (EC50) in the experiment with L. major promastigotes and in the experiment with A549 were 505 ± 54 nM and more than 5000 nM, respectively.
